“And” between values parts separate entries of the source, which are not always exact repeats. Equal entries are not always repeated. Where two headings read alike, the source gives them in different places. Each block holds one compound with its values, some of them ahead of it.
What was measured:
PGE2 = PGE2 release in stimulated NHEK (ELISA); assay type: cell-based, human; settings: Homo sapiens, NHEK, PMA 1 μg/ml; for inhibition at 1 µM: 10^−6 M
Description: (§1) NHEK were pre-incubated for 24 h with the test compounds. The medium was replaced with the NHEK culture medium containing the inflammatory inducers (PMA or Poly I:C) and incubated for another 24 hours. Positive and negative controls ran in parallel. At the endpoint the culture supernatants were quantified of secreted IL-8, PGE2 and TNF-α by means of ELISA.

VEGF = VEGF release in NHDF (ELISA); assay type: cell-based, human; settings: 1 μg/ml, 72 hours
Description: (§2) Tests were performed with normal human dermal fibroblast cultures at the 8th passage. Cells were grown in DMEM supplemented with glutamine at 2 mM, penicillin at 50 U/mL and streptomycin (50 μg/mL) and 10% of fetal calf serum (FCS) at 37° C. in a 5% CO2 atmosphere.
(§3) Fibroblasts were cultured for 24 hours before the cells were incubated with the test compounds for further 72 hours. After the incubation the culture supernatants were collected in order to measure the released quantities of procollagen I, VEGF, and fibronectin by means of ELISA. Reference test compounds were vitamin C (procollagen I), PMA (VEGF), and TGF-β (fibronectin).

[1] = Water solubility of naringenin-5-rhamnoside (0.2 μm filtered solutions, HPLC); assay type: physicochemical; settings: read-out: maximum water solubility
Description: FIG. 1: Determination of solubility of naringenin-5-O-α-L-rhamnoside (NR1) in water. Defined concentrations of NR1 were 0.22 μm-filtered before injection to HPLC. Soluble concentrations were calculated from peak areas by determined regression curves.
FIG. 1 illustrates the amounts of Naringenin-5-rhamnoside recaptured from a RP18 HPLC-column after loading of a 0.2 μm filtered solution containing defined amounts up to 25 mM of the same. Amounts were calculated from a regression curve.

[2] = system: normal human epidermal keratinocytes (NHEK); assay: Cytotoxicity on NHEK monolayer cultures (MTT reduction assay and morphological observation); assay type: cell-based; settings: for Viability (%): single values, listed as Nar-5-Rha
Description: To determine the cytotoxicity of flavonoid-5-O-α-L-rhamnosides tests were performed versus their aglycon derivatives in cell monolayer cultures. For this purpose concentrations ranging from 1 μM to 250 μM were chosen. The viability of normal human epidermal keratinocytes (NHEK) was twice evaluated by a MTT reduction assay and morphological observation with a microscope. NHEK were grown at 37° C. and 5% CO2 aeration in Keratinocyte-SFM medium supplemented with epidermal growth factor (EGF) at 0.25 ng/mL, pituitary extract (PE) at 25 μg/mL and gentamycin (25 μg/mL) for 24 h and were used at the 3rd passage. For cytotoxicity testing, pre-incubated NHEK were given fresh culture medium containing a specific concentration of test compound and incubated for 24 h. After a medium change at same test concentration cells were incubated a further 24 h until viability was determined. Test results are given in Table B2 and illustrated in FIG. 10.

[3] = system: lipid peroxides (C11-fluor) in NHEK cells; assay: Protection against UV-induced lipid peroxide in NHEK (C11-fluor probe, flow cytometry); assay type: cell-based, human
Description: (§4) Pre-incubated NHEK were incubated with the test compound for 24 h. Then the specific fluorescence probe for the measurement of hydrogen peroxide (DHR) or lipid peroxides (C11-fluor) was added and incubated for 45 min. Irradiation occurred with in H2O2 determination UVB at 180 mJ/cm^2 (+UVA at 2839 mJ/cm^2) or UVB at 240 mJ/cm^2 (+UVA at 3538 mJ/cm^2) in lipid peroxide, respectively, using a SOL500 Sun Simulator lamp. After irradiation the cells were post-incubated for 30 min before flow-cytometry analysis.

TNF-α = TNF-α release in stimulated NHEK (ELISA); assay type: cell-based, human; settings: Homo sapiens, NHEK, poly(I:C), read-out: TNFα Inhibition %
Description: as §1

IL-8 = IL-8 release in stimulated NHEK (ELISA); assay type: cell-based, human; settings: Homo sapiens, NHEK
Description: as §1

fibronectin = assay: Fibronectin synthesis in NHDF (ELISA); assay type: cell-based, human; settings: 10 ng/ml, 72 hours
Description: as §2, §3

procollagen I = assay: Procollagen I synthesis in NHDF (ELISA); assay type: cell-based, human; settings: 20 μg/ml, 72 hours
Description: as §2, §3

[4] = system: hydrogen peroxide (DHR) in NHEK cells; assay: Protection against UV-induced H2O2 stress in NHEK (DHR probe, flow cytometry); assay type: cell-based, human; settings: 180 mJ/cm^2 UVB (2839 mJ/cm^2 UVA); for H2O2 (AU) (DHR GMFI): single values
Description: as §4

[5] = 50 μM, 240 mJ/cm^2 UVB (3538 mJ/cm^2 UVA)
[6] = 50 μM, 240 mJ/cm^2 UVB (3538 mJ/cm^2 UVA), single values

Compound: COc1ccc2c(c1)c(CC(=O)O)c(C)n2C(=O)c1ccc(Cl)cc1 [Indomethacin, reference compound]
inhibition at 1 µM (PGE2): 106%

Compound: CCCCCCCCCCCCCC(=O)O[C@@H]1[C@@H](C)[C@@]2(O)[C@@H](C=C(CO)C[C@]3(O)C(=O)C(C)=C[C@@H]23)[C@@H]2C(C)(C)[C@]12OC(C)=O [PMA, reference compound]
Mean VEGF (VEGF): 148 pg/mL | VEGF % Control (VEGF): 205% | VEGF % Stimulation (VEGF): 105% | VEGF (VEGF; single values): 150 pg/mL and 143 pg/mL

Compound: C[C@@H]1C[C@H]2[C@@H]3CCC4=CC(=O)C=C[C@]4(C)[C@@]3(F)[C@@H](O)C[C@]2(C)[C@@]1(O)C(=O)CO [Dexamethasone, reference compound]
inhibition at 1 µM (PGE2): 9%

solubility ([1]; equivalent of 10 mmol/L): ~4200 µg/mL | solubility [1]: ~10 mM
Compound: C[C@@H]1O[C@@H](Oc2cc(O)cc3c2C(=O)CC(c2ccc(O)cc2)O3)[C@H](O)[C@H](O)[C@H]1O (mixture of isomers) [NR1, Naringenin-5-O-α-L-rhamnoside]
Viability (%) Mean ([2]; 1 μM): 101% | Viability (%) ([2]; 1 μM): 91% and 111% | Viability (%) Mean ([2]; 2.5 μM): 93% | Viability (%) ([2]; 2.5 μM): 92% and 93% | Viability (%) Mean ([2]; 5 μM): 86% | Viability (%) ([2]; 5 μM): 85% and 88% | Viability (%) Mean ([2]; 10 μM): 97% | Viability (%) ([2]; 10 μM): 94% and 100% | Viability (%) Mean ([2]; 25 μM): 95% | Viability (%) ([2]; 25 μM): 92% and 98% | Viability (%) Mean ([2]; 50 μM): 84% | Viability (%) ([2]; 50 μM): 78% and 91% | Viability (%) Mean ([2]; 100 μM): 86% | Viability (%) ([2]; 100 μM): 82% and 90% | Viability (%) Mean ([2]; 250 μM): 83% | Viability (%) ([2]; 250 μM): 79% and 87% | anti-oxidative function on lipid peroxides (in words) [3]: anti-oxidative function | inhibition at 100 µM (TNF-α): 8% | inhibition at 100 µM (IL-8; PMA): 12% | inhibition at 100 µM (IL-8; poly(I:C)): 14% | inhibition at 100 µM (PGE2; 100 μM): 21%

Compound: TGF-β
Fibronectin % Control (fibronectin): 181% | Fibronectin % Stimulation (fibronectin): 81% | Fibronectin (fibronectin; single values): 10870 ng/mL and 11178 ng/mL and 11128 ng/mL

Compound: Cc1cc(C(C)(C)C)c(O)c(C(C)(C)C)c1 [BHT]
C11-fluor(AU) Mean (1/GMFI) [3, 5]: 3.3E−04 AU | lipid peroxide % Irradiated control [3, 5]: 72% | lipid peroxide Protection % [3, 5]: 37% | C11-fluor(AU) 1/GMFI [3, 6]: 3.2E−04 AU and 3.3E−04 AU and 3.5E−04 AU | C11-fluor(AU) GMFI [3, 6]: 3139 AU and 3047 AU and 2877 AU

Compound: O=C1O[C@H]([C@@H](O)CO)C(O)=C1O [Vitamin C]
Procollagen I % Control (procollagen I): 316% | Procollagen I % Stimulation (procollagen I): 216% | Procollagen I Mean (procollagen I): 5272 ng/mL | Procollagen I (procollagen I; single values): 4739 ng/mL and 5854 ng/mL and 5225 ng/mL

Compound: Cc1c(C)c2c(c(C)c1O)CC[C@@](C)(CCC[C@H](C)CCC[C@H](C)CCCC(C)C)O2 [Vit. E]
H2O2 % irradiated control ([4]; 50 μM): 35% | H2O2 (AU) Mean ([4]; 50 μM): 655 AU | H2O2 Protection % ([4]; 50 μM): 78% | H2O2 (AU) (DHR GMFI) ([4]; 50 μM): 628 AU and 650 AU and 687 AU

Compound: COc1ccc(O)c(C(C)(C)C)c1 [BHA]
H2O2 % irradiated control ([4]; 100 μM): 42% | H2O2 (AU) Mean ([4]; 100 μM): 776 AU | H2O2 Protection % ([4]; 100 μM): 70% | H2O2 (AU) (DHR GMFI) ([4]; 100 μM): 740 AU and 834 AU and 754 AU

— patent US20190100549A1, “FLAVONOIDE-TYPE COMPOUNDS BEARING AN O-RHAMNOSYL RESIDUE” (Universitaet Hamburg, priority 2016, published 2019)
